Measured values taken from the supplement of paper PMC3974653.
Counter-ions that a name gives are not always drawn.

test system: MTT (mouse pheochromocytoma); assay: IC50 of cell viability (ATP content); details: (24 or 48 h)
In short: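 The IC50 was fitted with a four-parameter logistic equation to normalised CellTiter-Glo ATP luminescence from MTT mouse pheochromocytoma cells. These cells, in white 1536-well plates, had been treated for 24 or 48 hrs with library compounds at 8 final concentrations between 0.5 nM and 46 µM, and luminescence was read after 15 minutes. Positive-control wells served as 100% and DMSO wells as 0%.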

Row | Compound | IC50 of cell viability
1 | OC(COC1=CC=CC2=C1C(=O)\C=C(/O2)C(O)=O)COC3=CC=CC4=C3C(=O)\C=C(/O4)C(O)=O [Cromolyn sodium] | > 46 µM
2 | C/C=C\C(=O)N(CC)c1ccccc1C [Crotamiton] | > 46 µM
3 | C/C=C/C=N/NC(=O)c1ccncc1 [Crotoniazida] | > 46 µM
4 | N#CN [Cyanamide] | > 46 µM
5 | CC1(C)S[C@H]2[C@H](NC(=O)C3(N)CCCCC3)C(=O)[N@]2[C@H]1C(O)=O [Cyclacillin] | > 46 µM
6 | O=S(=O)(O)NC1CCCCC1 [Cyclamic acid] | > 46 µM
7 | CN1CCN(C(c2ccccc2)c2ccccc2)CC1 [Cyclizine hydrochloride] | > 46 µM
8 | CC1(C)\N=C(N)/N=C(/N)N1C2=CC=C(Cl)C=C2 [Cycloguanil HCl] | > 46 µM
9 | N[S+](=O)([O-])c1cc2c(cc1Cl)N[C@@H](CC1CCCC1)N[S+]2(=O)[O-] [Cyclopenthiazide] | > 46 µM
10 | CN(C)CCOC(=O)[C@@H](c1ccccc1)C1(O)CCCC1 [Cyclopentolate hydrochloride] | > 46 µM
11 | O=P1(N(CCCl)CCCl)NCCCO1 (stereo not drawn) [Cyclophosphamide] | > 46 µM
12 | C/C=C\C[C@H](C)[C@H](O)[C@H]1C(=O)N[C@@H](CC)C(=O)N(C)CC(=O)N(C)[C@@H](CC(C)C)C(=O)N[C@@H](C(C)C)C(=O)N(C)[C@@H](CC(C)C)C(=O)N[C@@H](C)C(=O)N[C@@H](C)C(=O)N(C)[C@@H](CC(C)C)C(=O)N(C)[C@@H](CC(C)C)C(=O)N(C)[C@@H](C(C)C)C(=O)N1C [Cyclosporin A] | > 46 µM
13 | NC(=O)C1c2ccccc2CCc2ccccc21 [Cyheptamide] | > 46 µM
14 | CC1(C)C(\C=C(/Cl)Cl)C1C(=O)OC(C#N)C2=CC=CC(OC3=CC=CC=C3)=C2 (stereo not drawn) [Cypermethrin] | > 46 µM
15 | Cl.NCCS [Cysteamine hydrochloride] | > 46 µM
16 | NCCS [Cysteamine] | > 46 µM
17 | COP(=S)(OC)Oc1ccc([S+](N)(=O)[O-])cc1 [Cythioate] | > 46 µM
18 | C[N+](C)(C)CCOP(=O)([O-])OP(=O)([O-])OCC1OC(n2ccc(N)nc2=O)[C@H](O)[C@@H]1O (stereo partly drawn) [Cytidine 5'-diphosphocholine sodium salt hydrate] | > 46 µM
19 | OCC1(O)OC[C@@H](O)[C@H](O)[C@@H]1O (stereo partly drawn) [D-(-)-TAGATOSE] | > 46 µM
20 | C[C@@H](N)C(=O)O [D-ALANINE] | > 46 µM
21 | NC(=O)C[C@@H](N)C(=O)O [D-ASPARAGINE] | > 46 µM

Row | Compound | IC50 of cell viability
22 | N[C@H](CC(=O)O)C(=O)O [D-ASPARTIC ACID] | > 46 µM
23 | N[C@H](CCC(=O)O)C(=O)O [D-GLUTAMIC ACID] | > 46 µM
24 | NC(=O)CC[C@@H](N)C(=O)O [D-GLUTAMINE] | > 46 µM
25 | O=C[C@H](O)[C@@H](O)[C@H](O)[C@H](O)CO [D-Glucose] | > 46 µM
26 | CC(C)C[C@@H](N)C(=O)O [D-LEUCINE] | > 46 µM
27 | O=C(CO)C(O)C(O)C(O)CO [D-LEVULOSE] | > 46 µM
28 | C=C(C)C1CC=C(C)CC1 [D-LIMONENE] | > 46 µM
29 | OC[C@@H](O)[C@@H](O)[C@H](O)[C@H](O)CO [D-Mannitol] | > 46 µM
30 | CC(C)(CO)[C@@H](O)C(=O)NCCC(=O)[O-] [D-Pantothenic acid hemicalcium salt] | > 46 µM
31 | N[C@H](CO)C(=O)O [D-SERINE] | > 46 µM
32 | N[C@H](Cc1c[nH]c2ccccc12)C(=O)O [D-TRYPTOPHAN] | > 46 µM
33 | N[C@@H]1CONC1=O [D-cycloserine] | > 46 µM
34 | CCNC(=O)NCCCOc1cccc(CN2CCCCC2)c1 [DALCOTIDINE] | > 46 µM
35 | O=C(O)Cc1ccc(CCN[S+](=O)([O-])c2ccc(Cl)cc2)cc1 [DALTROBANUM] | > 46 µM
36 | O=C1CN(/N=C/c2ccc(-c3ccc([N+](=O)[O-])cc3)o2)C(=O)N1 [DANTROLENE] | > 46 µM
37 | NC(=O)C(c1ccccc1)(c1ccccc1)[C@@H]1CCN(CCc2ccc3c(c2)CCO3)C1 [DARIFENACIN HYDROBROMIDE] | > 46 µM
38 | CC(C)CN(C[C@@H](O)[C@H](Cc1ccccc1)NC(=O)O[C@@H]1CO[C@H]2OCC[C@H]21)[S+](=O)([O-])c1ccc(N)cc1 [DARUNAVIR ETHANOLATE] | > 46 µM
39 | Cc1nc(Nc2ncc(C(=O)Nc3c(C)cccc3Cl)s2)cc(N2CCN(CCO)CC2)n1 [DASATINIB] | > 46 µM
40 | O=C(O)c1ccc(OCCn2ccnc2)cc1 [DAZOXIBENUM] | > 46 µM
41 | O=C([O][Na])C(Cl)Cl [DCA] | > 46 µM
42 | CC(=O)N[C@@H](CCC(=O)O)C(=O)O [DEANOLI ACEGLUMAS] | > 46 µM

Row | Compound | IC50 of cell viability
43 | C[N+](C)(C)CCCCCCCCCC[N+](C)(C)C [DECAMETHONIUM] | > 46 µM
44 | CCCCCCCCCC(=O)NO [DECANOHYDROXAMIC ACID] | > 46 µM
45 | CCCCCCCCCCOc1cc2c(O)c(C(=O)OCC)cnc2cc1OCC [DECOQUINATE] | > 46 µM
46 | CCCCCCCC/C=C\CCCCCCCCN [DECTAFLURUM] | > 46 µM
47 | O=C(O)c1ccc(-n2nc(-c3ccccc3O)nc2-c2ccccc2O)cc1 [DEFERASIROX] | > 46 µM
48 | CC1C(=O)C(=O)C=CN1C (stereo not drawn) [DEFERIPRONE] | > 46 µM
49 | C=C1N[C@]2(C(=O)COC(C)=O)[C@@H](C[C@H]3[C@@H]4CCC5=CC(=O)C=C[C@]5(C)[C@H]4[C@@H](O)C[C@@]32C)O1 [DEFLAZACORT] | > 46 µM
50 | CC(CCC(=O)O)C1CCC2C3C(=O)C[C@@H]4CC(=O)CC[C@@]4(C)C3CC(=O)[C@]12C (stereo partly drawn) [DEHYDROCHOLIC ACID] | > 46 µM
51 | CCOC(=O)[C@H](CCc1ccccc1)N[C@@H](C)C(=O)N(CC(=O)O)C1Cc2ccccc2C1 [DELAPRIL HYDROCHLORIDE] | > 46 µM
52 | CC(C)Nc1cccnc1N1CCN(C(=O)c2cc3cc(N[S+](C)(=O)[O-])ccc3[nH]2)CC1 [DELAVIRDINE MESYLATE] | > 46 µM
53 | Cc1cc(O)cc2c1O[C@](C)(CCC[C@H](C)CCC[C@H](C)CCCC(C)C)CC2 [DELTA-TOCOPHEROL, D-] | > 46 µM
54 | COc1ccc(-c2cc(C(F)F)nn2-c2ccc([S+](N)(=O)[O-])cc2)cc1F [DERACOXIB] | > 46 µM
55 | CC1OC(OC2CCC3(C)C(CCC4C3CC(O)C3(C)C(C5=CC(=O)OC5)CCC43O)C2)CC(O)C1OC1CC(O)C(OC2CC(O)C(OC3OC(CO)C(O)C(O)C3O)C(C)O2)C(C)O1 (stereo not drawn) [DESLANOSIDE] | > 46 µM
56 | CC(=O)O.N=C(N)NCCCC(NC(=O)C1CCCN1C(=O)C1CSSCCC(=O)NC(Cc2ccc(O)cc2)C(=O)NC(Cc2ccccc2)C(=O)NC(CCC(N)=O)C(=O)NC(CC(N)=O)C(=O)N1)C(=O)NCC(N)=O.O.O.O (stereo not drawn) [DESMOPRESSIN ACETATE] | > 46 µM
57 | CC(=O)O.N=C(N)NCCCC(NC(=O)C1CCCN1C(=O)C1CSSCCC(=O)NC(Cc2ccc(O)cc2)C(=O)NC(Cc2ccccc2)C(=O)NC(CCC(N)=O)C(=O)NC(CC(N)=O)C(=O)N1)C(=O)NCC(N)=O.O.O.O (stereo not drawn) [DESMOPRESSIN] | > 46 µM
58 | C#C[C@]1(O)CC[C@H]2[C@@H]3CCC4=CCCC[C@@H]4[C@H]3C(=C)C[C@@]21CC [DESOGESTREL] | > 46 µM
59 | CC1(C)O[C@@H]2C[C@H]3[C@@H]4CC\C5=C\C(=O)\C=C/[C@]5(C)[C@H]4C(O)C[C@]3(C)[C@@]2(O1)C(=O)CO (stereo partly drawn) [DESONIDE] | > 46 µM
60 | CC(=O)OCC(=O)[C@H]1CC[C@H]2[C@@H]3CCC/4=C/C(=O)CC[C@]4(C)[C@H]3CC[C@]12C [DESOXYCORTICOSTERONE ACETATE] | > 46 µM
61 | CC(C)(C)C(=O)OCC(=O)C1CCC2C3CCC4=CC(=O)CCC4(C)C3CCC12C (stereo not drawn) [DESOXYCORTICOSTERONE PIVALATE] | > 46 µM
62 | CN1C(=O)[C@@H](NC(=O)c2cc3ccccc3[nH]2)N=C(c2ccccc2)c2ccccc21 [DEVAZEPIDUM] | > 46 µM
63 | C[C@@H]1CC2C3CCC4=CC(=O)C=C[C@]4(C)[C@@]3(F)[C@@H](O)C[C@]2(C)[C@@]1(O)C(=O)COC(=O)c1cccc(S(=O)(=O)[O-])c1 (stereo partly drawn) [DEXAMETHASONE METASULFOBENZOATE SODIUM] | > 46 µM
